{"source": "patent US8399676B2", "about": "“Piperidine derivatives” (Hoffman-La Roche Inc., priority 2009, dated 2013)", "note": "Counter-ions that a name gives are not always drawn."}
{"molecular_target": "T1, human HSL (Homo sapiens, UniProt Q05469)", "T1 construct": "generate a full length human HSL ORF with a 3′-His6 tag; His6 (C); made in house; host or cells: High 5 insect cells (baculovirus, pFast-BAC)", "T1 sequence (Q05469 1-1076)": "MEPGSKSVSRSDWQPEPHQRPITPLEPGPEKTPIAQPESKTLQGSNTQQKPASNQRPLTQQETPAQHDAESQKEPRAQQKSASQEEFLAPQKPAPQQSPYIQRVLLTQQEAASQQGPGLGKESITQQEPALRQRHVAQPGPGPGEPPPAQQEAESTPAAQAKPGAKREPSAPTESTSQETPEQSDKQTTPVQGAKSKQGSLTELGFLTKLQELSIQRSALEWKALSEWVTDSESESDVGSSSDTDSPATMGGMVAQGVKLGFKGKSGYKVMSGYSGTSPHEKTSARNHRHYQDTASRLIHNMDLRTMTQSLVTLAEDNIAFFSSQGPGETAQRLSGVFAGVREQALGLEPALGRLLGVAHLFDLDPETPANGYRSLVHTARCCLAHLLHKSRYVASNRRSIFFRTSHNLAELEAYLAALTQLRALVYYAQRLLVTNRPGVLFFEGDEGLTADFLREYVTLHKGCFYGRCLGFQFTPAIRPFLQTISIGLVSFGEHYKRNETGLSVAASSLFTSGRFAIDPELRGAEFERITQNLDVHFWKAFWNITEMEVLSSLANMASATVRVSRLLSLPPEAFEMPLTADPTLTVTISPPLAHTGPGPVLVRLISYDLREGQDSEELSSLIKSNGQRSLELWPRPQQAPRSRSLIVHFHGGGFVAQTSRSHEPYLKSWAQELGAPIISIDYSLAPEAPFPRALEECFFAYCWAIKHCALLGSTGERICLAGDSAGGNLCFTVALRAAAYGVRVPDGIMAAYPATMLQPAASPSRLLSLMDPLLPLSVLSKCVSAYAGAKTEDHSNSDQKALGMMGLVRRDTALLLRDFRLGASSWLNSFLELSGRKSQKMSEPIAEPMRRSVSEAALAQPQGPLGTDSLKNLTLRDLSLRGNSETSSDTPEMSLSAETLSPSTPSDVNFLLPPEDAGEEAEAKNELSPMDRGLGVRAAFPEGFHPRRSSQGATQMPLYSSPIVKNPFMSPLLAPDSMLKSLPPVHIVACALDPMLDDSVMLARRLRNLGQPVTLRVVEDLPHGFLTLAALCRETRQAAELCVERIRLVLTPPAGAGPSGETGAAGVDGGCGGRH", "assay": "Human Hormone-Sensitive Lipase (HSL) enzyme inhibition assay (colorimetric, DMPT substrate)", "assay_type": "biochemical", "conditions": "read-out: HSL hum IC50", "outline": "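Full-length human HSL carrying a C-terminal His6 tag was expressed in High 5 insect cells via baculovirus and purified on Ni-NTA. Compounds from 3-fold DMSO series were mixed with 1.5 mM DMPT substrate suspension in 100 mM MOPS pH 7.2 with 0.2 mg/ml fatty acid-free BSA, then enzyme (15 ug/ml) was added for 20 minutes at 37 °C. Released thiol was detected with DTNB plus SDS/Triton X-100 (15 minutes, room temperature) at 405 nm.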", "units": {"IC50": "µM"}}
{"smiles": "CC(C)c1ccc(NC(=O)C2(N)CCN(C(=O)c3ccccc3Cl)CC2)cc1", "note": "[Example 124, 4-Amino-1-(2-chloro-benzoyl)-piperidine-4-carboxylic acid (4-isopropyl-phenyl)-amide]", "IC50": 0.23}
{"smiles": "COc1ccc(S(=O)(=O)N2CCC(O)(C(=O)Nc3ccc(C(C)(C)C)cc3)CC2)cc1", "note": "[Example 19, 4-Hydroxy-1-(4-methoxy-benzenesulfonyl)-piperidine-4-carboxylic acid (4-tert-butyl-phenyl)-amide]", "IC50": 0.17}
{"smiles": "O=C(Nc1ccc(F)cc1)N1CCC(O)(C(=O)Nc2ccc(OC(F)(F)F)cc2)CC1", "note": "[Example 52, 4-Hydroxy-piperidine-1,4-dicarboxylic acid 1-[(4-fluoro-phenyl)-amide] 4-[(4-trifluoromethoxy-phenyl)-amide]]", "IC50": 0.95}
{"smiles": "CC(C)CCC(=O)N1CCC(N)(C(=O)Nc2ccc(C(C)C)cc2)CC1", "note": "[Example 129, 4-Amino-1-(4-methyl-pentanoyl)-piperidine-4-carboxylic acid (4-isopropyl-phenyl)-amide]", "IC50": 0.48}
{"smiles": "CCc1ccc(NC(=O)C2(N)CCN(S(=O)(=O)c3ccccc3C(F)(F)F)CC2)cc1", "note": "[Example 145, 4-Amino-1-(2-trifluoromethyl-benzenesulfonyl)-piperidine-4-carboxylic acid (4-ethyl-phenyl)-amide]", "IC50": 0.13}
{"smiles": "CCc1ccc(NC(=O)C2(N)CCN(S(=O)(=O)c3c(F)cccc3F)CC2)cc1", "note": "[Example 142, 4-Amino-1-(2,6-difluoro-benzenesulfonyl)-piperidine-4-carboxylic acid (4-ethyl-phenyl)-amide]", "IC50": 0.1}
{"smiles": "CC(C)c1ccc(NC(=O)C2(N)CCN(C(=O)c3ccc(Cl)cc3)CC2)cc1", "note": "[Example 125, 4-Amino-1-(4-chloro-benzoyl)-piperidine-4-carboxylic acid (4-isopropyl-phenyl)-amide]", "IC50": 0.36}
{"smiles": "O=C(Nc1ccc(OC(F)(F)F)cc1)C1(O)CCN(S(=O)(=O)c2cccs2)CC1", "note": "[Example 57, 4-Hydroxy-1-(thiophene-2-sulfonyl)-piperidine-4-carboxylic acid (4-trifluoromethoxy-phenyl)-amide]", "IC50": 0.33}
{"smiles": "Cc1ccc(S(=O)(=O)N2CCC(O)(C(=O)Nc3ccc(C(C)(C)C)cc3)CC2)cc1", "note": "[Example 16, 4-Hydroxy-1-(toluene-4-sulfonyl)-piperidine-4-carboxylic acid (4-tert-butyl-phenyl)-amide]", "IC50": 0.2}
{"smiles": "CC(C)c1ccc(NC(=O)C2(N)CCN(Cc3ccccc3F)CC2)cc1", "note": "[Example 109, 4-Amino-1-(2-fluoro-benzyl)-piperidine-4-carboxylic acid (4-isopropyl-phenyl)-amide; hydrochloride]", "IC50": 0.08}
{"smiles": "O=C(Nc1ccc(OC(F)(F)F)cc1)C1(O)CCN(Cc2ccccc2F)CC1", "note": "[Example 58, 1-(2-Fluoro-benzyl)-4-hydroxy-piperidine-4-carboxylic acid (4-trifluoromethoxy-phenyl)-amide]", "IC50": 0.19}
{"smiles": "O=C(Nc1ccc(OC(F)(F)F)cc1)C1(O)CCN(Cc2ccccc2Cl)CC1", "note": "[Example 63, 1-(2-Chloro-benzyl)-4-hydroxy-piperidine-4-carboxylic acid (4-trifluoromethoxy-phenyl)-amide]", "IC50": 0.18}
{"smiles": "CC(C)(C)c1ccc(NC(=O)C2(O)CCN(Cc3ccccc3OC(F)(F)F)CC2)cc1", "note": "[Example 48, 4-Hydroxy-1-(2-trifluoromethoxy-benzyl)-piperidine-4-carboxylic acid (4-tert-butyl-phenyl)-amide]", "IC50": 0.11}
{"smiles": "CC(C)(Oc1ccc(NC(=O)C2(N)CCN(S(=O)(=O)c3ccccc3Cl)CC2)cc1)C(F)(F)F", "note": "[Example 102, 4-Amino-1-(2-chloro-benzenesulfonyl)-piperidine-4-carboxylic acid [4-(2,2,2-trifluoro-1,1-dimethyl-ethoxy)-phenyl]-amide]", "IC50": 0.18}
{"smiles": "NC1(C(=O)Nc2cccc(C(F)(F)F)c2)CCN(S(=O)(=O)c2ccccc2Cl)CC1", "note": "[Example 91, 4-Amino-1-(2-chloro-benzenesulfonyl)-piperidine-4-carboxylic acid (3-trifluoromethyl-phenyl)-amide]", "IC50": 0.71}
{"smiles": "CC(C)c1ccc(NC(=O)C2(N)CCN(Cc3ccccc3OC(F)(F)F)CC2)cc1", "note": "[Example 113, 4-Amino-1-(2-trifluoromethoxy-benzyl)-piperidine-4-carboxylic acid (4-isopropyl-phenyl)-amide; hydrochloride]", "IC50": 0.08}
{"smiles": "CC(C)c1ccc(NC(=O)C2(N)CCN(S(=O)(=O)c3cccc(Cl)c3)CC2)cc1", "note": "[Example 117, 4-Amino-1-(3-chloro-benzenesulfonyl)-piperidine-4-carboxylic acid (4-isopropyl-phenyl)-amide]", "IC50": 0.11}
{"smiles": "O=C(Nc1ccc(OC(F)(F)F)cc1)C1(O)CCN(S(=O)(=O)c2ccccc2F)CC1", "note": "[Example 61, 1-(2-Fluoro-benzenesulfonyl)-4-hydroxy-piperidine-4-carboxylic acid (4-trifluoromethoxy-phenyl)-amide]", "IC50": 0.1}
{"smiles": "CC(C)(C)CC(=O)N1CCC(O)(C(=O)Nc2ccc(OC(F)(F)F)cc2)CC1", "note": "[Example 51, 1-(3,3-Dimethyl-butyryl)-4-hydroxy-piperidine-4-carboxylic acid (4-trifluoromethoxy-phenyl)-amide]", "IC50": 0.81}
{"smiles": "CC(C)c1ccc(NC(=O)C2(N)CCN(C(=O)c3ccccc3OC(F)(F)F)CC2)cc1", "note": "[Example 123, 4-Amino-1-(2-trifluoromethoxy-benzoyl)-piperidine-4-carboxylic acid (4-isopropyl-phenyl)-amide]", "IC50": 0.2}
{"smiles": "NC1(C(=O)Nc2ccc3c(c2)CCC3)CCN(S(=O)(=O)c2ccccc2Cl)CC1", "note": "[Example 99, 4-Amino-1-(2-chloro-benzenesulfonyl)-piperidine-4-carboxylic acid indan-5-ylamide]", "IC50": 0.06}
{"smiles": "CC(C)(C)c1ccc(NC(=O)N2CCC(N)(C(=O)Nc3ccc(C(C)(C)C)cc3)CC2)cc1", "note": "[Example 90, 4-Amino-piperidine-1,4-dicarboxylic acid bis-[(4-tert-butyl-phenyl)-amide]; hydrochloride]", "IC50": 0.13}
{"smiles": "CC(C)CS(=O)(=O)N1CCC(O)(C(=O)Nc2ccc(OC(F)(F)F)cc2)CC1", "note": "[Example 54, 4-Hydroxy-1-(2-methyl-propane-1-sulfonyl)-piperidine-4-carboxylic acid (4-trifluoromethoxy-phenyl)-amide]", "IC50": 0.66}
{"smiles": "CC(C)c1ccc(NC(=O)C2(N)CCN(C(=O)Nc3ccc(C(C)(C)C)cc3)CC2)cc1", "note": "[Example 89, 4-Amino-piperidine-1,4-dicarboxylic acid 1-[(4-tert-butyl-phenyl)-amide]-4-[(4-isopropyl-phenyl)-amide]; hydrochloride]", "IC50": 0.12}
{"smiles": "CC(C)c1ccc(NC(=O)C2(N)CCN(Cc3ccc(F)cc3)CC2)cc1", "note": "[Example 121, 4-Amino-1-(4-fluoro-benzyl)-piperidine-4-carboxylic acid (4-isopropyl-phenyl)-amide; hydrochloride]", "IC50": 0.16}
{"smiles": "CCc1ccc(NC(=O)C2(N)CCN(S(=O)(=O)c3ccccc3Cl)CC2)cc1", "note": "[Example 93, 4-Amino-1-(2-chloro-benzenesulfonyl)-piperidine-4-carboxylic acid (4-ethyl-phenyl)-amide]", "IC50": 0.04}
{"smiles": "CC(C)c1ccc(NC(=O)C2(N)CCN(C(=O)c3ccc(C(F)(F)F)nc3)CC2)cc1", "note": "[Example 130, 4-Amino-1-(6-trifluoromethyl-pyridine-3-carbonyl)-piperidine-4-carboxylic acid (4-isopropyl-phenyl)-amide]", "IC50": 0.52}
{"smiles": "COC1(C(=O)Nc2ccc(C(C)(C)C)cc2)CCN(S(=O)(=O)c2ccccc2Cl)CC1", "note": "[Example 76, 1-(2-Chloro-benzenesulfonyl)-4-methoxy-piperidine-4-carboxylic acid (4-tert-butyl-phenyl)-amide]", "IC50": 0.53}
{"smiles": "CC(C)c1ccc(NC(=O)C2(N)CCN(S(=O)(=O)c3ccccc3Cl)CC2)cn1", "note": "[Example 101, 4-Amino-1-(2-chloro-benzenesulfonyl)-piperidine-4-carboxylic acid (6-isopropyl-pyridin-3-yl)-amide]", "IC50": 0.19}
{"smiles": "NC1(C(=O)Nc2ccc(OC(F)(F)F)cc2)CCN(S(=O)(=O)c2ccccc2Cl)CC1", "note": "[Example 103, 4-Amino-1-(2-chloro-benzenesulfonyl)-piperidine-4-carboxylic acid (4-trifluoromethoxy-phenyl)-amide]", "IC50": 0.03}
